This note sets out measurements from patent US9572786B2, “Use of capsiate or dihydrocapsidate” (Catholic University Industry Academy Cooperation Foundation, priority 2007, dated 2017).

One assay relates to MMP-2. In words: UV-induced MMP-2 mRNA expression, RT-PCR. Format: cell-based, human. As to conditions: HaCaT cells; 10, 25, 50 μM; UV 100 J/m^2; 36 hours. Here is the method:
The inhibition effect of capsiate on the expression of MMP-2 and MMP-9, which induce angiogenesis, was investigated through measurement of mRNA expression by RT-PCR and protein expression and activity measurement by zymography.
In order to investigate the inhibition effect of capsiate on MMP expression, 5×10^5 HaCaT cells were placed on a 60 mm Petri dish and cultured for 24 hours in DMEM containing 10% FBS. Subsequently, the cells were cultured for 24 hours in DMEM containing 1% FBS until starvation. Then, after treating with capsiate at different concentrations (10 μM, 25 μM, 50 μM) for 30 minutes, followed by washing 3 times with PBS, UV was irradiated at an intensity of 100 J/m^2. Immediately after the UV irradiation, the cells were washed again with PBS and further cultured for 36 hours in DMEM containing 1% FBS, which was treated with capsiate at the same concentration as in the pre-treatment. The degree of intracellular mRNA expression for MMP-2 and MMP-9 was measured by RT-PCR in the same manner as in Example 3. The degree of MMP expression was compared with that of the non-treated group.

In the next assay the test system is T cells. Nature of the assay: Proliferation of T cells, thymidine (H3) incorporation. Format: cell-based, C57/BL6 mouse. The conditions noted are these: mouse spleen T cells; 25 uM; vs control group. The procedure:
T cells were isolated from mouse spleen in order to investigate the effect of capsiate on the proliferation of T cells. Specifically, the spleen of C57/BL6 mouse was taken out and pulverized as single cells. After lysing red blood cells using an RBC lysis buffer (Sigma, USA), other cells were washed 3 times using cell culture medium (RPMI 1640 complete medium). The cell culture medium is prepared by adding 10% FBS, 10 mM HEPES, 100 μg/mL penicillin, 100 μg/mL streptomycin, 2 mM L-glutamine, 1 mM sodium pyruvate and 50 uM 2-mercaptoethanol. From the cells, only the T cells were separated using a T cell enrichment column (R&D, USA).
5×10^5 of the isolated T cells were placed on a 96-well plate and capsiate was treated at a concentration of 25 uM. Proliferation of T cells was induced by adding 0.1 μg/mL α-CD3a and 2 μg/mL α-CD28, or 1 μg/mL α-CD3a and 2 μg/mL α-CD28. The degree of cell proliferation was compared to that of the control group which was not treated with capsiate. Specifically, after culturing the T cells for 24 hours, thymidine (H3) was added at a concentration of 1 uCi per well and the T cells were harvested 16 hours later using a membrane filter (Skatron, England) and a cell harvester. The harvested T cells were lysed in LSC cocktail solution (Ultima Gold, PerkinElmer, USA) and H3's CPM value was measured using a beta counter (Packard, USA).

The test system of a further assay is IL-6. Nature of the assay: UV-induced IL-6 mRNA in hairless mouse skin, RT-PCR. The class given is in vivo. The conditions noted are these: 200 μL of 1 mM topically 1 hour before UV 5 kJ/m^2 once, 6 hours later. The procedure: In order to investigate the effect of capsiate on the production of IL-6 and TNF-α induced in skin tissue during inflammatory response, the inhibition ability of capsiate against the expression of the pro-inflammatory cytokines was evaluated in animal model as follows. Test groups were as follows: non-treated group—treated with acetone only without UV irradiation; test group A—treated with 200 μL of 1 mM capsiate dissolved in acetone without UV irradiation; UV group—treated with acetone and UV; test group B—treated with 200 μL of 1 mM capsiate dissolved in acetone followed by UV irradiation 1 hour later.
To this end, acetone and capsiate were treated prior to UV irradiation. After treating with UV once at an intensity of 5 kJ/m^2, hairless mouse was euthanized 6 hours later. mRNA was extracted from the mouse tissue obtained by skin biopsy and RT-PCR was carried out as follows. For RNA extraction from the tissue, each mouse tissue obtained by skin biopsy was quickly frozen in liquid nitrogen and ground finely using a mortar. RNA was extracted from the mouse tissue using Trizol (Invitrogen, USA), and PCR (PTC-225 Peltier thermal cycler, MJ Research, USA) was carried out using it as template and using a commercial kit (reverse transcription system, Qiagen, USA). As a result, cDNA was prepared from each group. […]

Another assay deals with ERK. In words: MAPK signaling after UV, Western blotting: ERK. The class given is cell-based, human. The conditions noted are these: HaCaT cells; 10, 25, 50 μM; 30 minutes after UV irradiation. The procedure:
Western blotting was performed in the same manner as in Example 2-1 in order to identify the factor that affects the COX-2 expression regulated by capsiate, except for treating the cells with capsiate at different concentrations (10 μM, 25 μM and 50 μM) prior to UV irradiation, and using rabbit anti-ERK antibody, rabbit anti-p-ERK antibody, rabbit anti-p38 antibody, rabbit anti-p-p38 antibody, rabbit anti-JNK antibody and rabbit anti-p-JNK antibody (cell signaling), and anti-rabbit IgG-HRP conjugation antibody (Zymed) as the secondary antibody, 30 minutes after UV irradiation.

Assay [1] concerns VEGF. Nature of the assay: UV-induced VEGF expression, immunohistochemical staining. As to conditions: HaCaT cells; 25 μM; UV 100 J/m^2; 24 hours. The class given is cell-based, human. Here is the method:
First, the inhibition effect of capsiate on the expression of VEGF, the typical intracellular angiogenesis factor, was evaluated by immunohistochemical staining in order to investigate the inhibition effect of capsiate on angiogenesis.
HaCaT cells were placed on a 14 mm culture slide and cultured for 24 hours in DMEM containing 10% FBS. Subsequently, the cells were cultured for 24 hours in DMEM containing 1% FBS until starvation. Then, after treating with 25 μM capsiate for 30 minutes, followed by washing 3 times with PBS, UV was irradiated at an intensity of 100 J/m^2. Immediately after the UV irradiation, the cells were washed again with PBS and further cultured for 24 hours in DMEM containing 1% FBS, which was treated with capsiate at the same concentration as in the pre-treatment. The cells were fixed for 5 minutes using methanol and immunohistochemical staining was carried out in the same manner as in Example 2-3. For VEGF detection, rabbit anti-VEGF IgG antibody (Santa Cruz, USA) and Alexa 488-labeled anti-rabbit-IgG secondary antibody (Invitrogen, USA) were used.

For assay [2], the system named is VEGF. Nature of the assay: VEGF expression in mouse skin, Western blotting. The class given is in vivo. The conditions noted are these: treated prior to UV irradiation. The procedure:
In order to investigate the effect of capsiate on various intracellular angiogenesis-related expression factors, the inhibition effect of capsiate on angiogenesis factors induced by UV was evaluated using the mouse tissue of Example 5.
Western blotting was carried out in the same manner as Example 6 using the proteins isolated from the mouse skin tissue of each test group in Example 6, in order to investigate of capsiate on VEGF, which plays an important role in angiogenesis. In order to investigate the level of VEGF expression, VEGF antibody (Santa Cruz, USA) and HRP-conjugated secondary antibody (1:10,000, Zymed) were used.

`COc1cc(COC(=O)CCCC/C=C/C(C)C)ccc1O` [capsiate]: the “UV-induced mRNA expression of MMP-2” value in the assay with MMP-2 was “decreased”. Moreover, the “proliferation of T cells induced by α-CD3a and α-CD28” value in the assay on T cells is reported as “significant inhibition”. Further, the “UV-induced expression of IL-6 (mRNA) in skin tissue” value with IL-6 is reported as “decrease”. For the same compound, in the assay on ERK, the “phosphorylation of ERK” value is given as “inhibited”. For the same compound, in the assay with VEGF [1], the “UV-induced VEGF expression in the cytoplasm” value was “decreased”. Further, the “level of VEGF expression in the mouse skin tissue” value with VEGF [2] was “decreased”.
